{"source": "patent US20120245346A1", "about": "“MALEIC ACID SALT AND CRYSTAL THEREOF” (Kyorin Pharmaceutical Co., Ltd., priority 2009, published 2012)", "type_in_all_cases": "physicochemical", "key": {"[1]": {"assay": "Adhesion water by thermal analysis TG-DTA (Test Example 1, Stage 2)", "conditions": "for ADHESION WATER: decrease (%) in TG-DTA chart at about 50° C., Stage 2; for adhesion water (in words): TG-DTA decrease (%) at about 50° C.", "description": "(§1) A sample (5 mg) was placed in a sample pan (a container made of aluminum), and thermal analysis TG-DTA of the sample was performed using EXSTAR 6000 thermal analyzer manufactured by Seiko Instruments Inc.\n(§2) As the monomaleic acid salt, the sample in Example 5 was used in Stage 1 of Table 2, and the sample in Example 1 was used in Stage 2. The other samples in respective Stages of Table 2 were prepared in accordance with Patent Literature 1. The solubility and the stability as a drug substance of the respective samples were examined in Stage 1, and the crystallinity, phenomenon of crystal polymorphism, and presence or absence of adhesion water were examined in Stage 2.\nAdhesion water: When decrease (%) in the chart obtained from the thermal analysis TG-DTA is seen at about 50° C., the adhesion water is represented as “Presence,” and when the decrease (%) is not seen, the adhesion water is represented as “None.”"}, "[2]": {"assay": "Stability as a drug substance, 2-week storage, HPLC assay of mainly degradation product (Test Example 1, Stage 1)", "conditions": "2-week storage at 25° C./75% RT (closed system), increase in HPLC area % of mainly degradation product", "description": "as §2\nStability as a drug substance: The sample after 2-week storage at 25° C./75% RT (closed system) was assayed by high-performance liquid chromatography (HPLC) under conditions described below. When the increase in area percentage (%) of a mainly degradation product is less than +0.5%, the stability of drug substances is represented as circle (◯), and when the increase is +0.5% or more, the stability of drug substances is represented as cross mark (x). In Test Example 2, the mainly degradation product was assayed by HPLC under the same conditions.\nConditions of HPLC in test of stability as a drug substance\ncolumn: Atlantis dC18, 2.1 mm φ×15 cm, 3 μm Measurement wavelength: 254 nm column temperature: 40° C. Flow rate: 0.2 mL/min Mobile phase A: 0.05% formic acid aqueous solution Mobile phase B: 0.05% formic acid-acetonitrile solution Transfer of mobile phases: The mixed ratio of mobile phase A and mobile phase B is changed as shown in Table 1 to control the concentration gradient."}, "[3]": {"assay": "Solubility in water (Test Example 1, Stage 1)", "description": "as §2\nSolubility: When the ratio of dissolved sample to water is 10 mg/mL or more, the solubility of the sample is represented as circle (◯), and when the ratio is 10 mg/mL or less, the solubility is represented as cross mark (x)."}, "[4]": {"assay": "Development of crystal polymorphism by TG-DTA and powder x-ray diffraction (Test Example 1, Stage 2)", "conditions": "TG-DTA versus powder x-ray diffraction", "description": "as §1\n(§3) A sample (about 100 mg) was (lightly) pulverized in an agate mortar, and a packed section of a sample flat holder made of glass was filled with the pulverized sample. Powder x-ray diffraction of the sample was then performed using RINT2200 powder x-ray diffractometer (Rigaku Corporation).\nas §2\nDevelopment of crystal polymorphism: For crystals of the same salt, when the crystal structure shown by the thermal analysis TG-DTA is different from that shown by the powder x-ray diffraction, the development of crystal polymorphism is represented as “Presence”. On the other hand, when the thermal analysis TG-DTA and the powder x-ray diffraction show the same crystal structure, the development of crystal polymorphism is represented as “None.”"}, "[5]": {"assay": "Crystallinity by powder x-ray diffraction (Test Example 1, Stage 2)", "conditions": "for CRYSTALLINITY: powder x-ray diffraction peak intensity, Stage 2; for crystallinity (in words): powder x-ray diffraction", "description": "as §3, §2\nCrystallinity: In powder x-ray diffraction, when a peak intensity is 5000 cps or more, the crystallinity is represented as “High,” and when it is 5000 cps or less, the crystallinity is represented as “Low.”"}, "[6]": {"conditions": "ratio of dissolved sample to water, Stage 1"}}, "note": "Structures can show the parent of a compound that is named as a salt. Where two headings read alike, the source gives them in different places."}
{"compound": "CCc1cc(OC)cc2nc(-c3cccnc3N3CC[C@H](N(C)C)C3)oc(=O)c12", "note": "[DIHYDROCHLORIDE, 2-[2-((S)-3-dimethylaminopyrrolidin-1-yl)pyridin-3-yl]-5-ethyl-7-methoxy-4H-benz[d][1,3]oxazin-4-one]", "values": [{"measurement": "ADHESION WATER", "setting": "[1]", "value": "PRESENCE"}, {"measurement": "STABILITY AS DRUG SUBSTANCE", "setting": "[2]", "value": "x (when the increase is +0.5% or more)"}, {"measurement": "SOLUBILITY", "setting": "[3]; [6]", "value": "∘"}, {"measurement": "solubility in water", "setting": "[3]; water", "value": "≥ 10", "unit": "mg/mL"}]}
{"compound": "CCc1cc(OC)cc2nc(-c3cccnc3N3CC[C@H](N(C)C)C3)oc(=O)c12", "note": "[FREE FORM, 2-[2-((S)-3-dimethylaminopyrrolidin-1-yl)pyridin-3-yl]-5-ethyl-7-methoxy-4H-benz[d][1,3]oxazin-4-one]", "values": [{"measurement": "PHENOMENON OF CRYSTAL POLYMORPHISM", "setting": "[4]", "value": "AMORPHOUS"}, {"measurement": "CRYSTALLINITY", "setting": "[5]", "value": "LOW"}, {"measurement": "STABILITY AS DRUG SUBSTANCE", "setting": "[2]", "value": "∘"}, {"measurement": "SOLUBILITY", "setting": "[3]; [6]", "value": "x (when the ratio is 10 mg/mL or less)"}, {"measurement": "solubility in water", "setting": "[3]; water, listed as free base", "value": "≤ 2", "unit": "mg/mL"}]}
{"compound": "CCc1cc(OC)cc2nc(-c3cccnc3N3CC[C@H](N(C)C)C3)oc(=O)c12.Cl.O", "note": "[MONOHYDROCHLORIDE, 2-[2-((S)-3-dimethylaminopyrrolidin-1-yl)pyridin-3-yl]-5-ethyl-7-methoxy-4H-benz[d][1,3]oxazin-4-one hydrochloride monohydrate]", "values": [{"measurement": "PHENOMENON OF CRYSTAL POLYMORPHISM", "setting": "[4]", "value": "PRESENCE"}, {"measurement": "adhesion water (in words)", "setting": "[1]", "value": "adhesion water was present"}, {"measurement": "ADHESION WATER", "setting": "[1]", "value": "PRESENCE"}, {"measurement": "crystallinity (in words)", "setting": "[5]", "value": "low crystallinity and high amorphous content"}, {"measurement": "CRYSTALLINITY", "setting": "[5]", "value": "LOW"}, {"measurement": "STABILITY AS DRUG SUBSTANCE", "setting": "[2]", "value": "∘"}, {"measurement": "SOLUBILITY", "setting": "[3]; [6]", "value": "∘"}, {"measurement": "SOLUBILITY", "setting": "[3]; water, read-out: solubility in water", "value": "≥ 10000", "unit": "µg/mL"}]}
{"compound": "CCc1cc(OC)cc2nc(-c3cccnc3N3CC[C@H](N(C)C)C3)oc(=O)c12", "note": "[MONOMALEIC ACID, 2-[2-((S)-3-dimethylaminopyrrolidin-1-yl)pyridin-3-yl]-5-ethyl-7-methoxy-4H-benz[d][1,3]oxazin-4-one monomaleate]", "values": [{"measurement": "PHENOMENON OF CRYSTAL POLYMORPHISM", "setting": "[4]; monomaleate", "value": "PRESENCE"}, {"measurement": "adhesion water (in words)", "setting": "[1]", "value": "adhesion water was not present"}, {"measurement": "ADHESION WATER", "setting": "[1]; monomaleate", "value": "NONE"}, {"measurement": "crystallinity (in words)", "setting": "[5]", "value": "high crystallinity"}, {"measurement": "CRYSTALLINITY", "setting": "[5]; monomaleate", "value": "HIGH"}, {"measurement": "STABILITY AS DRUG SUBSTANCE", "setting": "[2]; monomaleate", "value": "∘"}, {"measurement": "SOLUBILITY", "setting": "[3]; ratio of dissolved sample to water, Stage 1, monomaleate", "value": "∘"}, {"measurement": "solubility in water", "setting": "[3]; water, listed as monomaleic acid salt, monomaleate", "value": "≥ 10", "unit": "mg/mL"}]}
{"compound": "CCc1cc(OC)cc2nc(-c3cccnc3N3CC[C@H](N(C)C)C3)oc(=O)c12", "note": "[½D-TARTARIC ACID, 2-[2-((S)-3-dimethylaminopyrrolidin-1-yl)pyridin-3-yl]-5-ethyl-7-methoxy-4H-benz[d][1,3]oxazin-4-one]", "values": [{"measurement": "ADHESION WATER", "setting": "[1]", "value": "PRESENCE"}, {"measurement": "STABILITY AS DRUG SUBSTANCE", "setting": "[2]", "value": "x (when the increase is +0.5% or more)"}, {"measurement": "SOLUBILITY", "setting": "[3]; [6]", "value": "∘"}, {"measurement": "solubility in water", "setting": "[3]; water, listed as 1/2D-tartaric acid salt", "value": "≥ 10", "unit": "mg/mL"}]}
{"compound": "CCc1cc(OC)cc2nc(-c3cccnc3N3CC[C@H](N(C)C)C3)oc(=O)c12", "note": "[¾L-TARTARIC ACID, 2-[2-((S)-3-dimethylaminopyrrolidin-1-yl)pyridin-3-yl]-5-ethyl-7-methoxy-4H-benz[d][1,3]oxazin-4-one]", "values": [{"measurement": "ADHESION WATER", "setting": "[1]", "value": "PRESENCE"}, {"measurement": "STABILITY AS DRUG SUBSTANCE", "setting": "[2]", "value": "∘"}, {"measurement": "SOLUBILITY", "setting": "[3]; water, ratio of dissolved sample to water, Stage 1, read-out: SOLUBILITY", "value": "≤ 10000", "unit": "µg/mL"}]}
